molecular target: T1, K103NNY181C mutant reverse transcriptase (Human immunodeficiency virus type 1 group M subtype B, UniProt P04585, K690N/Y768C); experiment: Reverse transcriptase enzymatic assay (PicoGreen), K103N/Y181C mutant RT; format: biochemical, HIV-1; settings: IC50 mut (nM), mutant (K103N/Y181C) reverse transcriptase, enzymatic assay of Example 24
T1 construct: mutations that occur in the reverse transcriptase segment of the pol gene
Method: The enzymatic assay employed is described as follows: The reverse transcriptase (RT) enzyme assay has been adapted to a 96-well microtiter plate format and uses PicoGreen™ as a fluorescent intercalator. More explicitly, the HIV-1 RT enzyme was thawed and appropriately diluted into Tris/HCl 50 mM pH 7.8 containing NaCl 60 mM, MgCl2.6H2O 2 mM, DTT 6 mM, GSH 2 mM and 0.02% w/v Chaps to give ≈10 nM enzyme. To 10 μL of this enzyme solution was added 10 μL of inhibitor solution (40 μM to 2.032 nM inhibitor in the same assay buffer as above containing 4% v/v DMSO). The plate was pre-incubated for 15 minutes at room temperature before proceeding to the next step. In this pre-incubation step, the highest and lowest inhibitor concentrations were 20 μM and 1.016 nM respectively and the concentration of DMSO was 2% v/v. Then the enzymatic reaction was initiated by addition of 20 μL of substrate solution. The final reaction mixture contained Tris/HCl 50 mM pH 7.8, NaCl 60 mM, MgCl2.6H2O 2 mM, DTT 6 mM, GSH 2 mM, CHAPS 0.02% w/v, DMSO 1% v/v, poly rC 45 nM, dG15 4.5 nM, dGTP 3.6 μM, and 2.5 nM enzyme. In this incubation step, the highest and lowest inhibitor concentrations were 10 μM and 0.508 nM respectively. After addition of the substrate cocktail, the plate was covered with a plastic seal and incubated for 50 minutes at 37° C. in a dry incubator. The reaction was then quenched by addition of 5 μL of EDTA 0.5 M. The plate was shaken for 30 seconds at medium speed and incubated for 5 minutes at room temperature. Then 160 μL of PicoGreen™ 1:400 dilution from commercial stock (diluted in Tris 20 mM pH 7.5 with EDTA 1 mM) was added and the plate was shaken for 30 seconds and incubated for 10 minutes at room temperature. The plate was then analyzed using a POLARstar Galaxy fluorometer (BMG Labtechnologies) with λex and λem of 485 nm and 520 nm respectively. Each well was read for 1.25 second. Each row contained at its extremities a blank and a control well.

SMILES | IC50 [nM]
CC(C)(C)c1ccc(-n2nnnc2SCC(=O)Nc2ccc(NS(=O)(=O)c3ccccc3)cc2Cl)c(Cl)c1 [Compound 7003] | 607
CC(C)(C)c1ccc(-n2nnnc2SCC(=O)Nc2ccc(NC(=O)CCC(=O)O)cc2Cl)c(Cl)c1 [Compound 7028] | 123
CC(C)(C)c1ccc(-n2nnnc2SCC(=O)Nc2ccc(NC(=O)Cc3ccccc3O)cc2Cl)c(Cl)c1 [Compound 7042] | 27
CC(C)(C)c1ccc(-n2nnnc2SCC(=O)Nc2ccc(NS(=O)(=O)Cc3ccccc3)cc2Cl)c(Cl)c1 [Compound 7004] | 272

same assay, conditions: IC50 mut, K103N/Y181C mutant reverse transcriptase, enzymatic assay of Example 24

SMILES | IC50 [nM]
CC(C)(C#Cc1ccc(NC(=O)CSc2nnnn2-c2ccc(C(C)(C)C)cc2Cl)c(Cl)c1)OCC(=O)Nc1ccncc1 [Compound 4041] | 35
CC(C)(C#Cc1ccc(NC(=O)CSc2nnnn2-c2cc(C(F)(F)F)cc(Cl)c2Cl)c(Cl)c1)NC(=O)c1cc[n+]([O-])cc1 [Compound 4210] | 15.5
CC(C)(C#Cc1ccc(NC(=O)CSc2nnnn2-c2ccc(C3CC3)cc2Cl)c(Cl)c1)NCc1ccccc1O [Compound 4130] | 43
CC(C)(C#Cc1ccc(NC(=O)CSc2nnnn2-c2ccc(C(C)(C)C)cc2Cl)c(Cl)c1)OCC(=O)N1CCCC1 [Compound 4038] | 75
CC(C)(C#Cc1ccc(NC(=O)CSc2nnnn2-c2ccc(C3CC3)cc2Cl)c(Cl)c1)NS(C)(=O)=O [Compound 4076] | 17.5
CC(C)(O)C#Cc1ccc(NC(=O)CSc2nnnn2-c2cc(Cl)c(C3CC3)cc2Cl)c(Cl)c1 [Compound 4070] | 82.5
CC(C)(O)C#Cc1ccc(NC(=O)CSc2nnnn2-c2cc(C(C)(C)C)ccc2Cl)c(Cl)c1 [Compound 4199] | 32
CC(C)(C#Cc1ccc(NC(=O)CSc2nnnn2-c2ccc(C(C)(C)C)cc2Cl)c(Cl)c1)OCC(=O)Nc1ccccc1 [Compound 4044] | 296
COc1ccc(Cl)c(-n2nnnc2SCC(=O)Nc2ccc(C#CC(C)(C)C(=O)O)cc2Cl)c1 [Compound 4114] | 200
CC(C)(C#Cc1ccc(NC(=O)CSc2nnnn2-c2ccc(C(C)(C)C)cc2Cl)c(Cl)c1)OCC(=O)Nc1ccc(O)cc1 [Compound 4024] | 35
CC(C)(C#Cc1ccc(NC(=O)CSc2nnnn2-c2ccc(C3(C)CC3)cc2Cl)c(Cl)c1)C(=O)O [Compound 4173] | 51
CC(C)(C)c1ccc(-n2nnnc2SCC(=O)Nc2ccc(C#CCCCO)cc2Cl)c(Cl)c1 [Compound 4004] | 16
CN1CCN(C(=O)COC(C)(C)C#Cc2ccc(NC(=O)CSc3nnnn3-c3ccc(C(C)(C)C)cc3Cl)c(Cl)c2)CC1 [Compound 4023] | 64
CC(C)(C#Cc1ccc(NC(=O)CSc2nnnn2-c2cc(C3CC3)ccc2Cl)c(Cl)c1F)OCCN1CCNCC1 [Compound 4209] | 46
CC(C)(C)c1ccc(-n2nnnc2SCC(=O)Nc2ccc(C#CCOC(N)=O)cc2Cl)c(Cl)c1 [Compound 4034] | 8.9
CC(C)(C#Cc1ccc(NC(=O)CSc2nnnn2-c2ccc(C3CC3)cc2Cl)c(Cl)c1)NC(=O)CN1CCC(C(=O)O)CC1 [Compound 4154] | 10.5
O=C(CSc1nnnn1-c1ccc(C2CC2)cc1Cl)Nc1ccc(C#CCCN2CCC(O)CC2)cc1Cl [Compound 4134] | 28.5
CC(C)(C#Cc1ccc(NC(=O)CSc2nnnn2-c2ccc(C3CC3)cc2Cl)c(Cl)c1)NCC1CC1 [Compound 4128] | 27
CC(C(=O)O)C(=O)NC(C)(C)C#Cc1ccc(NC(=O)CSc2nnnn2-c2ccc(C3CC3)cc2Cl)c(Cl)c1 (stereo not drawn) [Compound 4234] | 15.5
CC(C)(C#Cc1ccc(NC(=O)CSc2nnnn2-c2ccc(C3CC3)cc2Cl)c(Cl)c1)NC(=O)CN1CCCC1 [Compound 4123] | 38
CC(C)(C)c1ccc(-n2nnnc2SCC(=O)Nc2ccc(C#CCN3CCOCC3)cc2Cl)c(Cl)c1 [Compound 4010] | 27
CC(C)(C#Cc1ccc(NC(=O)CSc2nnnn2-c2ccc(C3CC3)cc2Cl)c(Cl)c1)OCCOc1ccncc1 [Compound 4167] | 39.5
CC(C)(C#Cc1ccc(NC(=O)CSc2nnnn2-c2cc(C(C)(C)C)cc(Br)c2Cl)c(Cl)c1)NC(=O)CN1CCC(C(=O)O)CC1 [Compound 4226] | 52
CC(C)(C#Cc1ccc(NC(=O)CSc2nnnn2-c2ccc(C3CC3)cc2Cl)c(Cl)c1)NC(=O)CNc1ccncc1 [Compound 4188] | 24
CC(C)(C#Cc1ccc(NC(=O)CSc2nnnn2-c2ccc(C(C)(C)C)cc2Cl)c(Cl)c1)C(=O)NCCN1CCOCC1 [Compound 4013] | 62
CCCC#Cc1ccc(NC(=O)CSc2nnnn2-c2ccc(C(C)(C)C)cc2Cl)c(Cl)c1 [Compound 4009] | 8.9
CN(O)C(=O)COC(C)(C)C#Cc1ccc(NC(=O)CSc2nnnn2-c2ccc(C(C)(C)C)cc2Cl)c(Cl)c1 [Compound 4050] | 66
CC(C)(C#Cc1ccc(NC(=O)CSc2nnnn2-c2ccc(C(C)(C)C)cc2Cl)c(Cl)c1)CO [Compound 4016] | 35

same assay, conditions: IC50 mut, mutant reverse transcriptase, enzymatic assay of Example 24

SMILES | IC50 [nM]
CC(C)(C)c1ccc(-n2nnnc2SCC(=O)Nc2ccc(C(=O)NCCO)cc2Cl)c(Cl)c1 [Compound 6016] | 35
Cc1nnc(SCC(=O)Nc2ccc(-c3ccc(OCC(=O)O)cc3)cc2Cl)n1-c1ccc(C(C)(C)C)cc1Cl [Compound 1001] | 25.5
Cc1cc(OCC(=O)O)ccc1-c1ccc(NC(=O)CSc2nnnn2-c2ccc(C(C)(C)C)cc2Cl)c(Cl)c1 [Compound 3011] | 340
CC(C)(C)c1ccc(-n2nnnc2SCC(=O)Nc2ccc(C(=O)Nc3ccc(O)cc3)cc2Cl)c(Cl)c1 [Compound 6013] | 34
CC(C)(C)c1ccc(-n2nnnc2SCC(=O)Nc2ccc(OCCN3CCCCC3)cc2Cl)c(Cl)c1 [Compound 3033] | 201
Cc1ccc(-n2nccc2SCC(=O)Nc2ccc(-c3ccc(CC(=O)O)cc3)cc2Cl)c(Cl)c1 [Compound 1004] | 420
CC(C)(C)c1ccc(-n2nnnc2SCC(=O)Nc2ccc(C(=O)NCc3ccc(N)cc3)cc2Cl)c(Cl)c1 [Compound 6026] | 51
CC(C)(C)c1ccc(-n2nnnc2SCC(=O)Nc2ccc(S(=O)(=O)NCCO)cc2Cl)c(Cl)c1 [Compound 3027] | 81
O=C(COc1ccc(NC(=O)CSc2nnnn2-c2ccc(C3CC3)cc2Cl)c(Cl)c1)NCCc1cccc[n+]1[O-] [Compound 5038] | 557
CC(C)(C)c1ccc(-n2nnnc2SCC(=O)Nc2ccc(C(=O)Nc3ccc(C(=O)O)cc3)cc2Cl)c(Cl)c1 [Compound 6014] | 34
C/C(=C\c1ccc(NC(=O)CSc2nnnn2-c2ccc(C3CC3)cc2Cl)c(Cl)c1)C(=O)O [Compound 3041] | 94
CC(C)(C)c1ccc(-n2nnnc2SCC(=O)Nc2ccc(S(=O)(=O)Nc3ccccc3)cc2Cl)c(Cl)c1 [Compound 3026] | 423
CC(C)(C)c1ccc(-n2nnnc2SCC(=O)Nc2ccc(OCC(=O)Nc3ccc(O)cc3)cc2Cl)c(Cl)c1 [Compound 5013] | 150
O=C(O)Cc1ccc(-c2ccc(NC(=O)CSc3nnnn3-c3ccc(C(F)(F)F)cc3Cl)c(Cl)c2)cc1 [Compound 2023] | 169
CC(C)NS(=O)(=O)c1ccc(NC(=O)CSc2nnnn2-c2ccc(C(C)(C)C)cc2Cl)c(Cl)c1 [Compound 3023] | 284
Cc1ccc(-n2nnnc2SCC(=O)Nc2ccc(-c3ccc(CC(=O)O)cc3)cc2Cl)c(Cl)c1 [Compound 2004] | 48
Cc1ccc(-n2nnnc2SCC(=O)Nc2ccc(-c3ccc(CC(=O)NS(C)(=O)=O)cc3)cc2Cl)c(Cl)c1 [Compound 2017] | 38
Cc1ccc(-n2nnnc2SCC(=O)Nc2ccc(-c3cccc(CC(=O)O)c3)cc2Cl)c(Cl)c1 [Compound 3004] | 93
CC(C)(C)c1ccc(-n2nnnc2SCC(=O)Nc2ccc(C(=O)NCCc3ccc(O)cc3)cc2Cl)c(Cl)c1 [Compound 6017] | 33
CC(C)(C)c1ccc(-n2nnnc2SCC(=O)Nc2ccc(-c3ncc[nH]3)cc2Cl)c(Cl)c1 [Compound 3029] | 76
COC(=O)Cc1cccc(-c2ccc(NC(=O)CSc3nnnn3-c3ccc(C)cc3Cl)c(Cl)c2)c1 [Compound 3002] | 120
CC(C)(C)c1ccc(-n2nnnc2SCC(=O)Nc2ccc(C(=O)NCCc3ccc(O)c(O)c3)cc2Cl)c(Cl)c1 [Compound 6020] | 51
Cc1ccc(-n2nnnc2SCC(=O)Nc2ccc(-c3ccc(OCC(=O)O)cc3)cc2Cl)c(Cl)c1 [Compound 2007] | 22
CC(C)(C)c1ccc(-n2nnnc2SCC(=O)Nc2ccc(-c3ccc(/C=C/C(=O)O)s3)cc2Cl)c(Cl)c1 [Compound 3031] | 15.5
CC(C)c1ccc(-n2nnnc2SCC(=O)Nc2ccc(-c3ccc(OCCN4CCCC4)cc3)cc2Cl)c(Cl)c1 [Compound 2056] | 29

Reference: patent publication US7517998B2, “Non nucleoside reverse transcriptase inhibitors” (priority 2004, dated 2009)
